Reference: patent US8680133B2, “Alkyl indole-3-carbinol-derived antitumor agents” (The Ohio State University Research Foundation, priority 2009, dated 2014)

How the values were obtained:
DU-145 = assay: NCI60 screening, Prostate Cancer, DU-145; assay type: cell-based, human
IGROV1 = assay: NCI60 screening, Ovarian Cancer, IGROV1; assay type: cell-based, human
HOP-92 = assay: NCI60 screening, Non-Small Cell Lung Cancer, HOP-92; assay type: cell-based, human
MALME-3M = assay: NCI60 screening, Melanoma, MALME-3M; assay type: cell-based, human
BT-549 = assay: NCI60 screening, Breast Cancer, BT-549; assay type: cell-based, human
OVCAR-8 = assay: NCI60 screening, Ovarian Cancer, OVCAR-8; assay type: cell-based, human
[1] = Body weight of PC-3 xenograft mice receiving the experimental diet; assay type: in vivo, nude mice; conditions: 450 ppm in diet, compared to controls
Description: Given the increased potency of OSU-A9M compared to the other lead derivatives, an experimental diet was formulated. An AIN-76A rodent diet (American Institute of Nutrition; including primarily casein, sucrose, and corn starch) containing 450 ppm OSU-A9M was made to deliver approximately 50 mg/kg of drug per day to each mouse estimated by food consumption and body weight measurements.

KM12 = assay: NCI60 screening, Colon Cancer, KM12; assay type: cell-based, human
MOLT-4 = assay: NCI60 screening, Leukemia, MOLT-4; assay type: cell-based, human
TK-10 = assay: NCI60 screening, Renal Cancer, TK-10; assay type: cell-based, human
HT29 = assay: NCI60 screening, Colon Cancer, HT29; assay type: cell-based, human
HOP-62 = assay: NCI60 screening, Non-Small Cell Lung Cancer, HOP-62; assay type: cell-based, human
SK-OV-3 = assay: NCI60 screening, Ovarian Cancer, SK-OV-3; assay type: cell-based, human
SK-MEL-28 = assay: NCI60 screening, Melanoma, SK-MEL-28; assay type: cell-based, human
SR = assay: NCI60 screening, Leukemia, SR; assay type: cell-based, human
MDA-MB-231/ATCC = assay: NCI60 screening, Breast Cancer, MDA-MB-231/ATCC; assay type: cell-based, human
HCT-15 = assay: NCI60 screening, Colon Cancer, HCT-15; assay type: cell-based, human
[2] = Homo sapiens, read-out: LC50 (the source's name)

Cc1ccc2c(c1)c(CO)cn2S(=O)(=O)c1ccc(Cl)c([N+](=O)[O-])c1 [OSU-A9M, [1-(4-chloro-3-nitro-benzenesulfonyl)-5-methyl-1H-indol-3-yl]-methanol]
TGI (DU-145): 3.04E−6 | GI50 (DU-145; Homo sapiens): 1670 nM | CC50 (DU-145; [2]): 5510 nM | Percent Growth (DU-145; Log10 Concentration −4.0): −100% | Percent Growth (DU-145; Log10 Concentration −5.0): −100% | Percent Growth (DU-145; Log10 Concentration −6.0): 93% | Percent Growth (DU-145; Log10 Concentration −7.0): 95% | Percent Growth (DU-145; Log10 Concentration −8.0): 103% | TGI (IGROV1): 1.23E−6 | GI50 (IGROV1; Homo sapiens, IGROV-1): 349 nM | CC50 (IGROV1; Homo sapiens, IGROV-1, read-out: LC50 (the source's name)): 3500 nM | Percent Growth (IGROV1; Log10 Concentration −4.0): −100% | Percent Growth (IGROV1; Log10 Concentration −5.0): −100% | Percent Growth (IGROV1; Log10 Concentration −6.0): 10% | Percent Growth (IGROV1; Log10 Concentration −7.0): 98% | Percent Growth (IGROV1; Log10 Concentration −8.0): 86% | TGI (HOP-92): 2.67E−6 | GI50 (HOP-92; Homo sapiens): 1310 nM | CC50 (HOP-92; [2]): 5430 nM | Percent Growth (HOP-92; Log10 Concentration −4.0): −97% | Percent Growth (HOP-92; Log10 Concentration −5.0): −93% | Percent Growth (HOP-92; Log10 Concentration −6.0): 69% | Percent Growth (HOP-92; Log10 Concentration −7.0): 76% | Percent Growth (HOP-92; Log10 Concentration −8.0): 92% | GI50 (MALME-3M; Homo sapiens, Malme-3M): 1870 nM | CC50 (MALME-3M; Homo sapiens, Malme-3M, read-out: LC50 (the source's name)): 9000 nM | TGI (MALME-3M; MALME-3M): 4.10E−6 | Percent Growth (MALME-3M; MALME-3M, Log10 Concentration −4.0): −75% | Percent Growth (MALME-3M; MALME-3M, Log10 Concentration −5.0): −57% | Percent Growth (MALME-3M; MALME-3M, Log10 Concentration −6.0): 90% | Percent Growth (MALME-3M; MALME-3M, Log10 Concentration −7.0): 78% | Percent Growth (MALME-3M; MALME-3M, Log10 Concentration −8.0): 83% | TGI (BT-549): 3.13E−6 | GI50 (BT-549; Homo sapiens): 1670 nM | CC50 (BT-549; [2]): 5890 nM | Percent Growth (BT-549; Log10 Concentration −4.0): −92% | Percent Growth (BT-549; Log10 Concentration −5.0): −92% | Percent Growth (BT-549; Log10 Concentration −6.0): 91% | Percent Growth (BT-549; Log10 Concentration −7.0): 87% | Percent Growth (BT-549; Log10 Concentration −8.0): 85% | TGI (OVCAR-8): 3.95E−6 | GI50 (OVCAR-8; Homo sapiens): 1930 nM | CC50 (OVCAR-8; [2]): 8090 nM | Percent Growth (OVCAR-8; Log10 Concentration −4.0): −84% | Percent Growth (OVCAR-8; Log10 Concentration −5.0): −65% | Percent Growth (OVCAR-8; Log10 Concentration −6.0): 96% | Percent Growth (OVCAR-8; Log10 Concentration −7.0): 101% | Percent Growth (OVCAR-8; Log10 Concentration −8.0): 97% | Body weights of mice receiving the experimental diet [1]: unchanged compared to controls | TGI (KM12): 2.97E−6 | GI50 (KM12; Homo sapiens): 1620 nM | CC50 (KM12; [2]): 5450 nM | Percent Growth (KM12; Log10 Concentration −4.0): −100% | Percent Growth (KM12; Log10 Concentration −5.0): −100% | Percent Growth (KM12; Log10 Concentration −6.0): 90% | Percent Growth (KM12; Log10 Concentration −7.0): 97% | Percent Growth (KM12; Log10 Concentration −8.0): 105% | TGI (MOLT-4): 1.96E−6 | GI50 (MOLT-4; Homo sapiens): 334 nM | LC50 (MOLT-4; Homo sapiens): 18300 nM | Percent Growth (MOLT-4; Log10 Concentration −4.0): −64% | Percent Growth (MOLT-4; Log10 Concentration −5.0): −45% | Percent Growth (MOLT-4; Log10 Concentration −6.0): 19% | Percent Growth (MOLT-4; Log10 Concentration −7.0): 85% | Percent Growth (MOLT-4; Log10 Concentration −8.0): 92% | TGI (TK-10): 2.98E−6 | GI50 (TK-10; Homo sapiens): 1560 nM | CC50 (TK-10; [2]): 5710 nM | Percent Growth (TK-10; Log10 Concentration −4.0): −89% | Percent Growth (TK-10; Log10 Concentration −5.0): −93% | Percent Growth (TK-10; Log10 Concentration −6.0): 84% | Percent Growth (TK-10; Log10 Concentration −7.0): 83% | Percent Growth (TK-10; Log10 Concentration −8.0): 90% | TGI (HT29): 1.59E−6 | GI50 (HT29; Homo sapiens, HT-29): 434 nM | CC50 (HT29; Homo sapiens, HT-29, read-out: LC50 (the source's name)): 3980 nM | Percent Growth (HT29; Log10 Concentration −4.0): −100% | Percent Growth (HT29; Log10 Concentration −5.0): −100% | Percent Growth (HT29; Log10 Concentration −6.0): 25% | Percent Growth (HT29; Log10 Concentration −7.0): 94% | Percent Growth (HT29; Log10 Concentration −8.0): 91% | TGI (HOP-62): 3.11E−6 | GI50 (HOP-62; Homo sapiens): 1740 nM | CC50 (HOP-62; [2]): 5580 nM | Percent Growth (HOP-62; Log10 Concentration −4.0): −99% | Percent Growth (HOP-62; Log10 Concentration −5.0): −100% | Percent Growth (HOP-62; Log10 Concentration −6.0): 97% | Percent Growth (HOP-62; Log10 Concentration −7.0): 95% | Percent Growth (HOP-62; Log10 Concentration −8.0): 98% | TGI (SK-OV-3): 3.06E−6 | GI50 (SK-OV-3; Homo sapiens): 1670 nM | CC50 (SK-OV-3; [2]): 5620 nM | Percent Growth (SK-OV-3; Log10 Concentration −4.0): −100% | Percent Growth (SK-OV-3; Log10 Concentration −5.0): −97% | Percent Growth (SK-OV-3; Log10 Concentration −6.0): 92% | Percent Growth (SK-OV-3; Log10 Concentration −7.0): 97% | Percent Growth (SK-OV-3; Log10 Concentration −8.0): 95% | TGI (SK-MEL-28): 2.91E−6 | GI50 (SK-MEL-28; Homo sapiens): 1570 nM | LC50 (SK-MEL-28; Homo sapiens): 5400 nM | Percent Growth (SK-MEL-28; Log10 Concentration −4.0): −100% | Percent Growth (SK-MEL-28; Log10 Concentration −5.0): −100% | Percent Growth (SK-MEL-28; Log10 Concentration −6.0): 87% | Percent Growth (SK-MEL-28; Log10 Concentration −7.0): 89% | Percent Growth (SK-MEL-28; Log10 Concentration −8.0): 93% | TGI (SR): 2.47E−6 | GI50 (SR; Homo sapiens): 371 nM | CC50 (SR; [2]): > 100000 nM | Percent Growth (SR; Log10 Concentration −4.0): −46% | Percent Growth (SR; Log10 Concentration −5.0): −25% | Percent Growth (SR; Log10 Concentration −6.0): 16% | Percent Growth (SR; Log10 Concentration −7.0): 94% | Percent Growth (SR; Log10 Concentration −8.0): 85% | TGI (MDA-MB-231/ATCC): 2.96E−6 | GI50 (MDA-MB-231/ATCC; Homo sapiens): 1440 nM | CC50 (MDA-MB-231/ATCC; [2]): 6100 nM | Percent Growth (MDA-MB-231/ATCC; Log10 Concentration −4.0): −78% | Percent Growth (MDA-MB-231/ATCC; Log10 Concentration −5.0): −84% | Percent Growth (MDA-MB-231/ATCC; Log10 Concentration −6.0): 75% | Percent Growth (MDA-MB-231/ATCC; Log10 Concentration −7.0): 91% | Percent Growth (MDA-MB-231/ATCC; Log10 Concentration −8.0): 98% | TGI (HCT-15): 2.82E−6 | GI50 (HCT-15; Homo sapiens): 1500 nM | CC50 (HCT-15; [2]): 5310 nM | Percent Growth (HCT-15; Log10 Concentration −4.0): −100% | Percent Growth (HCT-15; Log10 Concentration −5.0): −100% | Percent Growth (HCT-15; Log10 Concentration −6.0): 82% | Percent Growth (HCT-15; Log10 Concentration −7.0): 94% | Percent Growth (HCT-15; Log10 Concentration −8.0): 92%
